# Laboratory results published in patent publication US7109160B1, “Peptides containing the motif IGD and their use as cell migration modulators” (University of Dundee, priority 1997, dated 2006).
# “Also recorded” adds a separate entry of the source.
# Assays:
# [1] = system: human skin fibroblasts (SK319 and FSF44); test: Native collagen gel migration assay; type: cell-based; conditions: for effect on cell migration into native type I collagen gels: human dermal fibroblasts, 4-day incubation, FIG. 1
# Method: Assays were performed as described in Materials and Methods in Example 1. Results are normalised by expressing them as “relative stimulation” of migration, this being calculated by dividing the percentage of cells in the gel matrix for each experimental point by the control value obtained in that particular experiment. Data are presented as the mean ±SD of five experiments. For clarity, the shaded area indicates the spread of standard deviations for data points not plotted with error bars. Upper panel: results obtained with the indicated synthetic peptides. Lower panel: results obtained with native fibronectin (FN), and its cell-binding (Cell-BD) and gelatin-binding (Gel-BD) domains.
# (§1) Cells. Experiments were performed with two lines of human skin fibroblasts (SK319 and FSF44, between passage 10–18) shown to be free of mycoplasmal contamination by staining with Hoechst 33256. Identical results were obtained with both lines and these cells are consequently not individually identified in the Figures. Stock cultures were maintained in Eagle's Minimal Essential (MEM), as previously described^7.
# (§2) Migration Assays. In the collagen gel assay, pre-formed 2 ml gels were overlaid with 1 ml of serum-free MEM (controls) or serum-free MEM containing the requisite concentration of effector molecule to give the desired final concentration. Trypsinised fibroblasts were suspended in serum-free MEM to give an inoculum containing 2×10^5 cells/ml and 1 ml of this was plated onto replicate control and test gels.
# [2] = system: human skin fibroblasts (SK319 and FSF44); test: Inhibitors of early and late aspects of IGDS activity (pre-incubation protocols, collagen gel assay); type: cell-based; set-up: key to Inhibitory activity: early events / Inhibitory activity: late events: yes(+); no(−); conditions: for effect on IGDS-induced cell migration (late events), in words / effect on initial IGDS signalling (early events), in words: Table 3; for inhibition at 10 µg/mL: Homo sapiens, Skin fibroblast
# Method: as §2
# The specific effects of potential inhibitory molecules on such early and late events were examined by using the following experimental protocol: (a) pre-incubating cells with IGDS (SEQ ID NO 2) and inhibitor and then assaying these treated cells in the absence of both IGDS (SEQ ID NO 2) and inhibitor (note: this protocol provides data concerning the effects of inhibitor on the early events mediating IGDS (SEQ ID NO 2) activity), (b) pre-incubating cells with neither IGDS (SEQ ID NO 2) nor inhibitor and assaying them in the presence of both (the effects of inhibitor on both early and late events), (c) pre-incubating cells with IGDS (SEQ ID NO 2) alone and then assaying them in the presence of inhibitor only (the effects of inhibitor on late events), and finally, (d) pre-incubating cells with inhibitor alone and then assaying them in the presence of IGDS (SEQ ID NO 2) to provide control information regarding possibly persistent effects of inhibitor which would confound data interpretation. Data presented in Table IA are concerned with the effects of the synthetic RGDS (SEQ ID NO 6) and RGES (SEQ ID NO 5).
# [3] = system: human skin fibroblasts (SK319 and FSF44); test: Collagen gel assay with combinations of peptides (co-incubation); type: cell-based
# Method: The collagen gel assay was performed in the presence of various combinations of the indicated peptides and the percentage of cells present within the gel matrix measured after a four-day incubation period. Data are expressed as mean ±SD obtained in three experiments. Panel A: combinations of the gelatin-binding domain (Gel-BD) and IGDS (SEQ ID NO 2); Panel B: combinations of IGDS (SEQ ID NO 2) and RGDS (SEQ ID NO 6); Panel C: combinations of IGDS (SEQ ID NO 2) and the cell-binding domain (Cell-BD).
# as §2
# The possible mechanistic relationship between IGDS (SEQ ID NO 2) and the gelatin-binding domain in which it is contained was further examined by co-incubating cells with suboptimal concentrations of each.
# Possible mechanistic interactions between IGDS (SEQ ID NO 2) and RGDS (SEQ ID NO 6) were studied in similar co-incubation experiments.
# chick yolk sac membrane = test: Chick yolk sac membrane angiogenesis assay; type: in vivo; conditions: for Positive responses (%) / Positive responses (positive/total): assessed after 24 hr; for angiogenic response in the chick yolk sac membrane, in words: in vivo
# Excerpt: Dried methylcellulose pellets containing the test samples and control pellets (lacking the test samples) were placed on the yolk sac membrane of 6-day chick embryos, as described in Materials and Methods in Example 1. The elicited reaction was checked after six hours and assessed after 24 hr by observation of living embryos with a stereomicroscope. […] After assessment at 24 hr, selected membranes were fixed in 2.5% EM grade glutaraldehyde in 0.2 M phosphate buffer, pH 7.4. These preparations were then stained with 1% toluidine blue and photographed using a Leica DM LB microscope. […] Bar=250 μm.
# Chick yolk sac membrane angiogenesis assay. The assay was performed essentially as described by Gush et al (1990) J. Med. Engineer. Tech. 14, 205–209. Accordingly, four-day-old fertilised eggs were cracked in a tumbler, covered with a Petri dish and incubated at 37° C. Two days later dried methylcellulose pellets containing the test samples and control pellets (lacking the test samples) were placed on the yolk sac membrane. The elicited angiogenic reaction was assessed after 24 hr by observation of living embryos with a stereomicroscope. Selected membranes were fixed in 2.5% EM grade glutaraldehyde in 0.2 M phosphate buffer (pH 7.4), dissected, stained with 1% toluidine blue and mounted on glass slides for photomicroscopy.
# [4] = system: human skin fibroblasts (SK319 and FSF44); test: Transmembrane migration assay (membranes coated with native type I collagen or gelatin); type: cell-based; conditions: FIG. 2; for effect on cell migration through gelatin-coated membranes: gelatin (heat-denatured type I collagen)-coated membranes; for effect on cell migration through membranes coated with native collagen: native type I collagen-coated membranes
# Method: Assays were performed as described in Materials and Methods in Example 1. Results from five experiments are presented as mean ±SD. Shaded area indicates the spread of standard deviations for data points not plotted with error bars. Panel A: results obtained with IGDS (SEQ ID NO 2) and the gelatin-binding domain (Gel-BD) on membranes coated with native collagen and gelatin. Panel B: results obtained with RGDS (SEQ ID NO 6), native fibronectin (FN), and its cell-binding domain (Cell-BD).
# as §1
# Polycarbonate membranes used in the transmembrane assay were immersed in an aqueous solution containing 10 μg/ml of either native type I collagen or heat-denatured type I collagen (gelatin) overnight at 37° C. and then air-dried. Assays were performed as previously described^7.
# [5] = system: human skin fibroblasts (SK319 and FSF44); test: Pre-incubation of cells with IGDS, subsequent migration in native collagen gel assay; type: cell-based
# Method: Confluent cells on plastic tissue culture dishes were washed 3× with serum-free MEM (SF-MEM) and then incubated for various times with the indicated concentrations of IGDS (SEQ ID NO 2) in SF-MEM. They were then trypsinised and washed extensively by repeated (5×) cycles of centrifugation and resuspension in SF-MEM. The behaviour of these pre-incubated cells was assessed in the collagen gel assay in the absence of further IGDS (SEQ ID NO 2)(indicated as IGDS (SEQ ID NO 2) not in assay). […] Data were obtained from three experiments and are expressed as mean ±SD.
# as §2
# rat wound healing model = test: Rat wound healing model (subcutaneous porcine dermal collagen film implants); type: in vivo; conditions: 1 μg/ml in collagen film, implanted subcutaneously, 28 days, p < 0.01
# Excerpt: In this experimental system, 1 cm^2 pieces of porcine dermal collagen films impregnated with either control medium or medium containing the indicated concentration of test substance were implanted subcutaneously into rats. The animals were sacrificed 28 days later and the removed collagen implants fixed and sectioned for image analysis.
# [6] = Genistein 10 μg/ml, PD98059 2.0 μM, PKA inhib 5 nM
# [7] = Genistein 10 μg/ml, PD98059 2.0 μM, PKA inhib 5 nM, no pre-incubation, IGDS and inhibitor in assay (early and late events)
# [8] = Genistein 10 μg/ml, PD98059 2.0 μM, PKA inhib 5 nM, pre-incubation with IGDS alone, inhibitor only in assay (late events)
# [9] = Genistein 10 μg/ml, PD98059 2.0 μM, PKA inhib 5 nM, pre-incubation with IGDS and inhibitor, neither in assay (early events)
# [10] = peptide 10.0 μ molar, no pre-incubation, IGDS and peptide in assay (early and late events)
# [11] = peptide 10.0 μ molar, pre-incubation with IGDS alone, peptide only in assay (late events)
# [12] = peptide 10.0 μ molar, pre-incubation with IGDS and peptide, neither in assay (early events)
compound,measurement,setting,value
Ile-Gly-Asp (IGD; listed as Homo sapiens),concentration at which significant bioactivity (migration stimulation) is first manifest,"[1]; collagen gel assay, FIG. 1A",10 to 100 µM
same,effect on cell migration into native type I collagen gels,[1],stimulated cell migration
COc1cccc(-c2cc(=O)c3ccccc3o2)c1N [PD98059],Inhibitory activity: early events,[2]; [6],early events: +
same,Inhibitory activity: late events,[2]; [6],late events: +
same,% inhibition,[2]; [7],99.8 ± 3.8%
same,% inhibition,[2]; [8],39.4 ± 5.0%
same,% inhibition,[2]; [9],90.5 ± 3.1%
same,"effect on IGDS-induced cell migration (late events), in words",[2],blocked
same,"effect on initial IGDS signalling (early events), in words",[2],blocked
Ile-Gly-Asp-Gin (IGDQ; listed as Homo sapiens),concentration at which significant bioactivity (migration stimulation) is first manifest,"[1]; collagen gel assay, FIG. 1A",0.1 µM
same,effect on cell migration into native type I collagen gels,[1],stimulated cell migration
RGES: RGES synthetic peptide (Peptide related to IGES),effect on the migration stimulating activity of IGDS (co-incubation),"[3]; FIG. 3B, 3C",no effect
same,Positive responses (%),chick yolk sac membrane; 3000 ng/pellet,(10) %
same,Positive responses (positive/total),chick yolk sac membrane; 3000 ng/pellet,1/10
same,"angiogenic response in the chick yolk sac membrane, in words",chick yolk sac membrane,inactive
same,"effect on IGDS-induced cell migration (late events), in words",[2],inactive
same,"effect on initial IGDS signalling (early events), in words",[2],inactive
same,Inhibitory activity: early events,[2]; peptide 10.0 μ molar,early events: −
same,Inhibitory activity: late events,[2]; peptide 10.0 μ molar,late events: −
same,% inhibition,[2]; [10],1.2 ± 2.1%
same,% inhibition,[2]; [11],0.3 ± 2.8%
same,% inhibition,[2]; [12],−1.0 ± 3.0%
Ile-Gly-Asp-Ser (IGDS; listed as Homo sapiens),effect on cell migration through gelatin-coated membranes,[4],devoid of activity
same,effect on cell migration through membranes coated with native collagen,[4],stimulated cell migration
same,activity on cell migration when present on its own,"[3]; 0.01 μM (10^7 fM), FIG. 3A",inactive
same,effect upon cell migration of co-incubation with the gelatin-binding domain,"[3]; suboptimal concentrations of each, FIG. 3A",additive effect
same,persistence of effect on cell migration after pre-incubation,"[5]; assayed in absence of further IGDS, dependent on pre-incubation time and peptide concentration, FIG. 4",persistent
same,elevated migratory behaviour still manifest following passages in vitro,"[5]; pre-incubated cells, data not shown",1–2 passages
same,concentration at which significant bioactivity (migration stimulation) is first manifest,"[1]; collagen gel assay, FIG. 1A",0.1 µM
same,shape of dose-response,"[1]; collagen gel assay, FIG. 1A",bell-shaped dose-response
same,effect on cell migration into native type I collagen gels,[1],stimulated cell migration
same,Positive responses (%),chick yolk sac membrane; 5 ng/pellet,(50) %
same,Positive responses (positive/total),chick yolk sac membrane; 5 ng/pellet,3/6
same,Positive responses (%),chick yolk sac membrane; 50 ng/pellet,(64) %
same,Positive responses (positive/total),chick yolk sac membrane; 50 ng/pellet,7/11
same,Positive responses (%),chick yolk sac membrane; 250 ng/pellet,(77) %
same,Positive responses (positive/total),chick yolk sac membrane; 250 ng/pellet,10/13
same,Positive responses (%),chick yolk sac membrane; 1000 ng/pellet,(64) %
same,Positive responses (positive/total),chick yolk sac membrane; 1000 ng/pellet,9/14
same,Positive responses (%),chick yolk sac membrane; 3000 ng/pellet,(78) %
same,Positive responses (positive/total),chick yolk sac membrane; 3000 ng/pellet,7/9
same,"angiogenic response in the chick yolk sac membrane, in words",chick yolk sac membrane,elicited an angiogenic response; also recorded: stimulates angiogenesis
same,angiogenic response elicited by pellet,"chick yolk sac membrane; pellet containing 1.0 μg, 6-day chick embryos, 24 hr, FIG. 7",positive angiogenic response
same,Fibroblasts (% field),rat wound healing model; control 8.3 ± 6.7,18.2 ± 9.4 % field
same,Vessels (per field),rat wound healing model; control 15.3 ± 5.5,26.7 ± 6.4 per field
O=c1c(-c2ccc(O)cc2)coc2cc(O)cc(O)c12 [Genistein],Inhibitory activity: early events,[2]; [6],early events: +
same,Inhibitory activity: late events,[2]; [6],late events: −
same,inhibition at 10 µg/mL,[2]; [7],94.1 ± 6.5%
same,inhibition at 10 µg/mL,[2]; [8],0.9 ± 2.9%
same,inhibition at 10 µg/mL,[2]; [9],96.7 ± 4%
same,"effect on IGDS-induced cell migration (late events), in words",[2],did not affect
same,"effect on initial IGDS signalling (early events), in words",[2],selectively blocked
RGDS: structurally related RGDS tetrapeptide (synthetic peptide) (Peptide related to IGDS),effect on cell migration through gelatin-coated membranes,[4],inactive
same,effect on cell migration through membranes coated with native collagen,[4],inactive
same,concentrations required for inhibition of IGDS activity,"[3]; FIG. 3B, 3C",pmolar
same,effect on the migration stimulating activity of IGDS (co-incubation),"[3]; FIG. 3B, 3C",effectively inhibited
same,effect on cell migration into native type I collagen gels,[1],devoid of migration stimulating activity
same,Positive responses (%),chick yolk sac membrane; 3000 ng/pellet,(9) %
same,Positive responses (positive/total),chick yolk sac membrane; 3000 ng/pellet,1/11
same,"angiogenic response in the chick yolk sac membrane, in words",chick yolk sac membrane,inactive
same,"effect on IGDS-induced cell migration (late events), in words",[2],inhibited
same,"effect on initial IGDS signalling (early events), in words",[2],inhibited
same,Inhibitory activity: early events,[2]; peptide 10.0 μ molar,early events: +
same,Inhibitory activity: late events,[2]; peptide 10.0 μ molar,late events: +
same,% inhibition,[2]; [10],92.3 ± 2.1%
same,% inhibition,[2]; [11],96.5 ± 5.7%
same,% inhibition,[2]; [12],96.2 ± 4.8%
